Assay results taken from PMC4641600, “Novel Activities of Select NSAID R-Enantiomers against Rac1 and Cdc42 GTPases” (PLoS ONE, 2015).
Where a name gives a salt, the structure may show the parent alone.

Legend:
[1] = tested on: Rab2 wt, Rab7 wt, Cdc42 wt, Cdc42Q61L, H-Ras wt, H-RasG12V, Rac1 wt and Rac1Q61L; experiment: Primary multiplex screen, BODIPY-FL-GTP binding on bead-bound GTPases (flow cytometry); settings: for Primary Screen Hit: single dose 10 µM, change in BODIPY-GTP binding on any one GTPase; for primary screen outcome: 10 μM compound
[2] = tested on: Rac1 membrane localization; experiment: Rac1 immunolocalization, OvCa433 cells; assay type: cell-based, human; settings: for Rac1 membrane localization: 300 μM; for Rac PM Localiz.: immunofluorescence quantified using ImageJ
[3] = tested on: Ras-related GTPases; experiment: Confirmatory dose response assays on eight Ras-related GTPases; assay type: binding; settings: for activity against the GTPases in confirmatory dose response assays (words): 10 nM to 100 µM
Experimental: (§1) For multiplex analyses of small GTPases, 4 μm diameter glutathione-beads (GSH-beads) distinguished by seven different intensities of red fluorescence were used according to our previously described protocols. The GST-GTPases included the following eight Ras-related small GTPases: Rab2 wt, Rab7 wt, Cdc42 wt, Cdc42Q61L activating mutant, H-Ras wt, H-RasG12V, Rac1 wt and Rac1Q61L activating mutant. Briefly, Prestwick Chemical Library® compounds were tested at 10 μM compound and 1% DMSO final concentrations. After a 10 min pre-incubation with the compound BODIPY- FL-GTP (100 nM final) was added to each well and bead associated fluorescence was measured. Sample analysis was conducted with a HyperCyt® high throughput flow cytometry platform. Flow cytometric light scatter at 488 nm and fluorescence emission at 530 +/− 20 nm (FL1) and 665 +/− 10 nm (FL8) were collected on a Cyan ADP flow cytometer (Beckman Coulter, Fullerton, CA). IDLQuery software was used to determine the compound activity in each well. Gating based on forward scatter (FS) and side scatter (SS) parameters was used to identify singlet bead populations. Gating based on FL8 emission distinguishes the beads coated with different proteins, and the median FL1 fluorescence per bead population were calculated. A compound was considered a “potential active” if the change in BODIPY-FL-GTP binding differed greater than 20% from that measured in DMSO treated controls.
(§2) Test compounds identified for follow-up after the primary screen were tested at dilutions ranging from 10 nM to 100 μM final concentration against individual GTPases in multiplex and single-plex assays. Compounds tested in dose response assays were serially diluted 1:3 a total of eight times from a starting concentration of 10 mM giving a 9-point dilution series in DMSO.
(§3) bConfirmatory screens entailed dose response assays conducted in a multiplex format with eight GTPases tested as for primary screen. BODIPY-GTP-binding activity was
(§4) measured in the presence of 10 nM to 100 µM of each of 11 test compounds (4 primary screen hits and 7 additional NSAIDs considered to have chemical similarity to GTPase
(§5) active compounds). GST-GFP coated beads served as a control to detect non-specific dissociation or denaturation caused by compound addition–none of the tested NSAIDs had
(§6) any effect on bead-GST-protein binding. EC50 values were determined using Prism to determine dose response fits as shown in Figure 1 of main text; fits have R2 > 0.9. Active
(§7) compounds based on same definition used as in primary screena. […]
(§8) ‡A well-characterized selective Cdc42 inhibitor served as a positive control.

[4] = target: Rac1 wt (Homo sapiens, UniProt P63000); experiment: Dose response, BODIPY-GTP binding; settings: 10 nM to 100 µM
[5] = target: Cdc42 wt (Homo sapiens, UniProt P60953); experiment: Dose response, BODIPY-GTP binding; settings: 10 nM to 100 µM
Chain of Cdc42 wt (P60953 whole entry): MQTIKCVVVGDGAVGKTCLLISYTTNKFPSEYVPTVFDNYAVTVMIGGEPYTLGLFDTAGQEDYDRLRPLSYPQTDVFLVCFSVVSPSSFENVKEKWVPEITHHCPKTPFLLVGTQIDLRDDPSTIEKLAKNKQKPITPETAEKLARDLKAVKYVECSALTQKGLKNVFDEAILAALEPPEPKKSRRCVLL

[6] = target: Cdc42Q61L activating mutant (Homo sapiens, UniProt P60953, Q61L); experiment: Dose response, BODIPY-GTP binding; settings: 10 nM to 100 µM; read-out: Cdc42 (act) EC50
Chain of Cdc42Q61L activating mutant (P60953 whole entry Q61L): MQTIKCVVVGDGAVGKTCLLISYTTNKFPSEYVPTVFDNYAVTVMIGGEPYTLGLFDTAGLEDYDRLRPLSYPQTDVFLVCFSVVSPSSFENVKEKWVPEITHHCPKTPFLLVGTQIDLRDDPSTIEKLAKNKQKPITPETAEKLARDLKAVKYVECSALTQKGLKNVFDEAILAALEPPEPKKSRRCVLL

[7] = target: H-Ras wt (Homo sapiens, UniProt P01112); experiment: Dose response, BODIPY-GTP binding; settings: 10 nM to 100 µM
Experimental: as §1, §2, §3, §4, §5, §6, §7

[8] = target: H-RasG12V (Homo sapiens, UniProt P01112, G12V); experiment: Dose response, BODIPY-GTP binding; settings: 10 nM to 100 µM
Experimental: as §1, §2, §3, §4, §5, §6, §7, §8

[9] = tested on: migration Rac1/Cdc42 dependent; experiment: Migration IC50 (Table F); assay type: cell-based; settings: ketorolac, calculated by GraphPad Prism5; read-out: IC50 migration Rac1/Cdc42 dependent (est)
[10] = target: T1, Rac1 (Mus musculus, UniProt P63001); experiment: GLISA, Swiss 3T3 cells; assay type: cell-based; settings: at 50 μM
T1 construct: endogenous in cells; host or cells: Swiss 3T3

[11] = target: T2, Cdc42 (Mus musculus, UniProt P60766); experiment: GLISA, Swiss 3T3 cells; assay type: cell-based; settings: at 10 μM
T2 construct: endogenous in cells; host or cells: Swiss 3T3
T2 sequence (P60766 whole entry): as the sequence (P60953 whole entry) above

[12] = target: T3, human COX-1 (Homo sapiens, UniProt P23219); experiment: Cyclooxygenase assay (CEREP), PGE2 formation; assay type: biochemical
T3 construct: purchased CEREP Laboratories (contract assay); host or cells: Sf-9
T3 sequence (P23219 24-599): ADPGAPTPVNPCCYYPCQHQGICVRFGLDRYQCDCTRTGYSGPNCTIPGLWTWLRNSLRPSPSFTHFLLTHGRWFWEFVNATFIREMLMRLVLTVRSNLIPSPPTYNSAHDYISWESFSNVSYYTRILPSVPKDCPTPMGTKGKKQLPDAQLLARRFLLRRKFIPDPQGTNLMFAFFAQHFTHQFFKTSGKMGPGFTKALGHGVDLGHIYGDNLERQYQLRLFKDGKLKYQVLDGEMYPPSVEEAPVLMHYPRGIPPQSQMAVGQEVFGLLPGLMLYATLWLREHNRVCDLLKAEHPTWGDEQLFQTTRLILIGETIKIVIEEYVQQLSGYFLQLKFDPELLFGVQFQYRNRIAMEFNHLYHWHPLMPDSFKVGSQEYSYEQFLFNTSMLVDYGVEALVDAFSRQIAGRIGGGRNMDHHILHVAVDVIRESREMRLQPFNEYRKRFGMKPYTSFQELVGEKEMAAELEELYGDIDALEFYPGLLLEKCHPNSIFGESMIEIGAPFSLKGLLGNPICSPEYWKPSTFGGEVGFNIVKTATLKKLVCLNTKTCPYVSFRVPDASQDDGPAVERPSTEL

[13] = target: T4, Rac1 (Homo sapiens, UniProt P63000); experiment: G-trap flow cytometric effector binding assay, HeLa cells; assay type: cell-based; settings: ketorolac enantiomers
T4 construct: endogenous in cells; host or cells: HeLa

[14] = target: T5, human COX-2 (Homo sapiens, UniProt P35354); experiment: Cyclooxygenase assay (CEREP), PGE2 formation; assay type: biochemical; settings: recombinant enzyme, 4 μM arachidonic acid
T5 construct: purchased CEREP Laboratories (contract assay); host or cells: Sf-9
T5 sequence (P35354 18-604): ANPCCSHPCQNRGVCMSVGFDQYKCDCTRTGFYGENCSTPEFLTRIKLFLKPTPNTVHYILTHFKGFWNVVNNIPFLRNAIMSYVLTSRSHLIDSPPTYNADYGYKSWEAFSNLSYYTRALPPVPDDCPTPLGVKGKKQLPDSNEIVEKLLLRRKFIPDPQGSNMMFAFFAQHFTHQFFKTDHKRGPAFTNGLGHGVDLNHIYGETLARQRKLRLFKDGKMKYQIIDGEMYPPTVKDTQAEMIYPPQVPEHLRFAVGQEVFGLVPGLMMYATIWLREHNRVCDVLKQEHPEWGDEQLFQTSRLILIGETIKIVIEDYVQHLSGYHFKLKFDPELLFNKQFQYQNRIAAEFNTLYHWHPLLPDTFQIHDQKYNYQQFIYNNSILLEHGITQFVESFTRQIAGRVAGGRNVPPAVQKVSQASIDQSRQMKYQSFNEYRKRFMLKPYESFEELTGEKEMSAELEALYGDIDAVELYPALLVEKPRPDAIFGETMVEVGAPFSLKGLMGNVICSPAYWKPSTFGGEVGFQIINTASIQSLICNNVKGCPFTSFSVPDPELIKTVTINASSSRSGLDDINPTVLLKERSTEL

[15] = target: T6, Cdc42 (Homo sapiens, UniProt P60953); experiment: G-trap flow cytometric effector binding assay, HeLa cells; assay type: cell-based; settings: ketorolac enantiomers, EGF stimulation, read-out: EC50 against Cdc42
T6 construct: endogenous in cells; host or cells: HeLa
T6 sequence (P60953 whole entry): as the sequence (P60953 whole entry) above

[16] = target: Rab2 (Homo sapiens, UniProt P61019); experiment: Dose response, BODIPY-GTP binding; settings: 10 nM to 100 µM
Chain of Rab2 (P61019 whole entry, species assumed): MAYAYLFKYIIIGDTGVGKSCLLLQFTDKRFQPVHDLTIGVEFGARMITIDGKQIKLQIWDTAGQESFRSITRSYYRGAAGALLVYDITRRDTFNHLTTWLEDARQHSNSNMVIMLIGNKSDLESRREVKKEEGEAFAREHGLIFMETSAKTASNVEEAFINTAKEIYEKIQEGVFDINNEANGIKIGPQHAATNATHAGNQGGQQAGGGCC

[17] = tested on: Tiam1 membrane localization; experiment: Tiam1 immunolocalization, OvCa433 cells; assay type: cell-based, human
Experimental: OvCa433 were plated on coverslips, treated with 300 μM NSAIDs for 1 h, fixed with 3% paraformaldehyde and immunostained for Rac1 or Tiam1. Actin was visualized with rhodamine phalloidin from Invitrogen (F432). Cells were imaged on a Zeiss LSM510 using a 63x objective and quantified using Image J.
Rac1 and Tiam1 antibodies were confirmed in our hands to recognize single protein species of the predicted molecular weight by immunoblot.

[18] = target: Rab7 (Homo sapiens, UniProt P51149); experiment: Dose response, BODIPY-GTP binding; settings: 10 nM to 100 µM
Chain of Rab7 (P51149 whole entry, species assumed): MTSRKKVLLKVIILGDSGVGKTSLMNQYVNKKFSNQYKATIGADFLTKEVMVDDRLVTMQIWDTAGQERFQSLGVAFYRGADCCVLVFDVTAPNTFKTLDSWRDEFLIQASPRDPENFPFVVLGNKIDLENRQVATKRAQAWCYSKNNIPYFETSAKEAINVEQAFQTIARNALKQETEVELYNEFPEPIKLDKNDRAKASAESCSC

[19] = tested on: Rac1 and Tiam1 protein levels; experiment: Immunoblot of protein levels; assay type: cell-based, human
Experimental: Cells were stimulated with EGF at a final concentration of 1 nM for 10 min. Cells were lysed in a RIPA buffer consisting of 50 mM Tris pH 7.4, 1% NP-40, 0.25% sodium deoxycholate, 150 mM NaCl, 1 mM EDTA, 1 mM PMSF, 1 mM sodium vanadate, 10 mM sodium fluoride, 1 μg/mL each of pepstatin, aprotinin and leupeptin, 10 mM sodium pyrophosphate and 10 mM beta-glycerophosphate.
N = 3. See also Figure D in S1 File for time dependent loss of Rac1 membrane localization. N = 3 (B) Quantification of image intensity using Image J of 3 representative confocal images as shown in panel (A) containing 20–30 cells/field normalized to actin and untreated controls. (C) Western blot analyses of lysates from cells treated with 300 μM compound as indicated for 24 h as compared to untreated controls. […] Blots were probed for Tiam1 (200 kDa), GAPDH (37 kDa), Rac1 (20 kDa), as a loading control. (D) Quantification of image intensity using Image J. Each marker was normalized to GAPDH and untreated controls. N = 3.

[20] = target: Rac1Q61L activating mutant (Homo sapiens, UniProt P63000, Q61L); experiment: Dose response, BODIPY-GTP binding; settings: 10 nM to 100 µM; read-out: Rac1 (act) EC50
[21] = assays performed with 0.1% DMSO

SMILES: CC(=O)Nc1ccc(O)cc1 [Acetaminophen]
- Primary Screen Hit [1]: Inactive

SMILES: CC(=O)Oc1ccccc1C(=O)O [Acetylsalicylic acid]
- Rac1 membrane localization [2]: did not alter

SMILES: CC(=O)Oc1ccccc1C(=O)Oc1ccccc1C(=O)O [Acetylsalicylsalicylic acid]
- Primary Screen Hit [1]: Inactive

SMILES: Cc1ccc(-c2cc(C(F)(F)F)nn2-c2ccc(S(N)(=O)=O)cc2)cc1 [Celecoxib]
- activity against the GTPases in confirmatory dose response assays (words) [3]: inactive

SMILES: O=C(O)Cc1ccccc1Nc1c(Cl)cccc1Cl [Diclofenac sodium]
- Primary Screen Hit [1]: Inactive

SMILES: O=C(O)c1cc(-c2ccc(F)cc2F)ccc1O [Diflunisal]
- Primary Screen Hit [1]: Inactive

SMILES: CC(C(=O)O)c1cccc(Oc2ccccc2)c1 (centres unmarked) [Fenoprofen]
- Rac1 membrane localization [2]: did not alter
- primary screen outcome [1]: positive
- Primary Screen Hit [1]: Active
- Rac1 wt EC50 [4]: Inactive

SMILES: CC(C(=O)O)c1cccc(C(=O)c2ccccc2)c1 (centres unmarked) [Ketoprofen]
- Rac1 membrane localization [2]: did not alter
- Rac PM Localiz. [2, 21]: 45%

SMILES: CN1C(C(=O)Nc2ccccn2)=C(O)c2ccccc2S1(=O)=O [Piroxicam]
- Primary Screen Hit [1]: Inactive

SMILES: CC(C)Cc1ccc([C@H](C)C(=O)O)cc1 [S-(+)-Ibuprofen, (S)-(+)-Ibuprofen]
- Cdc42 wt EC50 [5]: inactive
- Rac PM Localiz. [2, 21]: 78%
- EC50 [6]: 6.41 µM
- primary screen outcome [1]: positive
- Primary Screen Hit [1]: Active
- H-Ras wt EC50 [7]: inactive
- H-Ras (act) EC50 [8]: inactive

SMILES: O=C(c1ccccc1)c1ccc2n1CC[C@@H]2C(=O)O [S-ketorolac]
- IC50 [9]: > 100 µM
- inhibition of Rac1 [10]: non-inhibitory
- inhibition of Cdc42 [11]: non-inhibitory
- eudismic ratio (EC50/EC50) ([12]; for cyclooxygenases, S-enantiomer relative to R-enantiomer): 100
- IC50 ([12]; recombinant enzyme, 4 μM arachidonic acid): < 0.01 µM
- efficacy against Rac1 [13]: < 50%
- IC50 [14]: 0.085 µM
- EC50 [15]: > 10 µM

SMILES: COc1ccc2cc([C@H](C)C(=O)O)ccc2c1 [S-naproxen]
- Rac1 membrane localization [2]: no effect
- Rac PM Localiz. [2]: 87%
- Rab2 EC50 [16]: inactive
- Tiam1 membrane localization ([17]; 300 μM): only slightly reduced
- Tiam1 GEF PM localiz. ([17]; immunofluorescence quantified using ImageJ): 65%
- Rab7 EC50 [18]: inactive
- H-Ras wt EC50 [7]: inactive
- total Rac1 or Tiam1 protein levels ([19]; 300 μM, 24 h, immunoblot): did not alter
- Rac protein expression ([19]; immunoblot analysis): No change
- H-Ras (act) EC50 [8]: inactive
- times less active than the R-enantiomer [3]: 10–20 times
- activity against the GTPases in confirmatory dose response assays (words) [3]: varying activity levels

SMILES: CSc1ccc(/C=C2/C(C)=C(CC(=O)O)c3cc(F)ccc32)cc1 [Sulindac sulfide]
- EC50 [20]: 53 µM
- EC50 [5]: > 100 µM
- Rab2 EC50 [16]: inactive
- EC50 [6]: 48.6 µM
- Rab7 EC50 [18]: inactive
- H-Ras wt EC50 [7]: inactive
- H-Ras (act) EC50 [8]: inactive
- EC50 [4]: 54 µM
- activity against the GTPases in confirmatory dose response assays (words) [3]: varying activity levels

SMILES: CC1=C(CC(=O)O)c2cc(F)ccc2/C1=C\c1ccc([S+](C)[O-])cc1 (centres unmarked) [Sulindac]
- Primary Screen Hit [1]: Inactive

SMILES: CC(C(=O)O)c1ccc(C(=O)c2cccs2)cc1 (centres unmarked) [Suprofen]
- Primary Screen Hit [1]: Inactive

SMILES: CC(C(=O)O)c1ccc(C(=O)c2ccccc2)s1 (centres unmarked) [Tiaprofenic acid]
- Primary Screen Hit [1]: Inactive

SMILES: Cc1c(Cl)cccc1Nc1ccccc1C(=O)O [Tolfenamic acid]
- Primary Screen Hit [1]: Inactive

SMILES: Cc1ccc(C(=O)c2ccc(CC(=O)O)n2C)cc1 [Tolmetin sodium salt dihydrate]
- Primary Screen Hit [1]: Inactive

SMILES: Cc1onc(-c2ccccc2)c1-c1ccc(S(N)(=O)=O)cc1 [Valdecoxib]
- activity against the GTPases in confirmatory dose response assays (words) [3]: inactive

SMILES: CC(C)Cc1ccc(C(C)C(=O)O)cc1 (centres unmarked) [ibuprofen]
- Rac1 membrane localization [2]: did not alter
